Consider 17 compounds from ChEMBL document CHEMBL2346647, “Identification and characterization of small molecule inhibitors of signal transducer and activator of transcription 3 (STAT3) signaling pathway by virtual screening” (Bioorg Med Chem Lett, 2013).

Molecules are shown by their SMILES. Active and inactive are the calls of the source. No cut-off for these calls is given here.

Assay [1] has as its system MDA-MB-468. The assay is described as follows: Cytotoxicity against human MDA-MB-468 cells assessed as inhibition of cell viability at 10 uM. The format is functional.
Assay [2] deals with Signal transducer and activator of transcription 3 (Homo sapiens) (UniProt P40763). The assay is described as follows: Inhibition of IL-6-induced STAT3 pathway in human HepG2 cells at 10 uM by luciferase reporter gene assay. In kind it is cell-based. Background: A reporter such as luciferase makes a cellular process visible.
The target is the same in assay [3]. The assay is described as follows: Inhibition of IL-6-induced STAT3 phosphorylation at Tyr705 residue in human HepG2 cells pretreated for 6 to 48 hrs prior to IL-6 stimulation by Western blot analysis. The format is cell-based.
Assay [4] concerns MDA-MB-468. The assay is described as follows: Cytotoxicity against human MDA-MB-468 cells assessed as inhibition of cell viability. In kind it is functional, cell-based.
The target of assay [5] is Proto-oncogene tyrosine-protein kinase Src (Homo sapiens) (UniProt P12931). The assay is described as follows: Effect on SRC in human HepG2 cells pretreated at 50 uM for 6 to 48 hrs prior to IL-6 stimulation by Western blot analysis. The format is cell-based.
The test system of assay [6] is HepG2. The assay is described as follows: Effect on JAK2 protein level in human HepG2 cells pretreated at 50 uM for 48 hrs prior to IL-6 stimulation by Western blot analysis. In kind it is functional, cell-based. (In general: Immunoblotting shows a protein as a band on a membrane.)
Assay [7] addresses Tyrosine-protein kinase JAK2 (Homo sapiens) (UniProt O60674). The assay is described as follows: Effect on JAK2 in human HepG2 cells pretreated at 50 uM for 48 hrs prior to IL-6 stimulation by Western blot analysis. In kind it is cell-based.
Assay [8] addresses Signal transducer and activator of transcription 3 (Homo sapiens) (UniProt P40763). The assay is described as follows: Inhibition of IL-6-induced STAT3 phosphorylation at Tyr705 residue in human HepG2 cells pretreated at 50 uM for 6 to 48 hrs prior to IL-6 stimulation by Western blot analysis. The format is cell-based.
For assay [9], the target named is T1, Signal transducer and activator of transcription 1-alpha/beta (Homo sapiens) (UniProt P42224).
T1 sequence (whole entry): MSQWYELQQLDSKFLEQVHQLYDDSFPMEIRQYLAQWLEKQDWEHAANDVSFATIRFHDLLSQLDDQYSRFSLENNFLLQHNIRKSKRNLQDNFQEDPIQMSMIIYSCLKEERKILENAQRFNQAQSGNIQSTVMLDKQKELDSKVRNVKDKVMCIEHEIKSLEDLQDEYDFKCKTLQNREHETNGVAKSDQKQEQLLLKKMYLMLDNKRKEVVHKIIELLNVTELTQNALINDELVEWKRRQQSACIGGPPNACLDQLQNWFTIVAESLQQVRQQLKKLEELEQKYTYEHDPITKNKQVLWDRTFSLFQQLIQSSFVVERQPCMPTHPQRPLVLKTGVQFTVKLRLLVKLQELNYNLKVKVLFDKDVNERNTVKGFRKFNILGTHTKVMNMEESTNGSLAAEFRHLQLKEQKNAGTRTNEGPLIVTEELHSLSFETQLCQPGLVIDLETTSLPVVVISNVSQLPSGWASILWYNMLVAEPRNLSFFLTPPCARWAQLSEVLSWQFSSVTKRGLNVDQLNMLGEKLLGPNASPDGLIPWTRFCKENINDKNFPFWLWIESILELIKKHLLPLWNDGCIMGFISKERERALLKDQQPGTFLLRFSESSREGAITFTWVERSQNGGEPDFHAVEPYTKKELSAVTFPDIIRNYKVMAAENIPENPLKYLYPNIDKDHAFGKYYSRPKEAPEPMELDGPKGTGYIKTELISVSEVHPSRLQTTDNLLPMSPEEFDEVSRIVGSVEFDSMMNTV
The assay is described as follows: Inhibition of IFN-gamma-induced STAT1 (unknown origin) at 10 uM.

Assay [10] deals with HepG2. The assay is described as follows: Effect on total STAT3 protein level in human HepG2 cells pretreated for 6 hrs prior to IL-6 stimulation by Western blot analysis. The format is functional, cell-based.
Assay [11] has as its system HepG2. The assay is described as follows: Effect on SRC protein level in human HepG2 cells pretreated at 50 uM for 48 hrs prior to IL-6 stimulation by Western blot analysis. In kind it is functional, cell-based.

Chain of Signal transducer and activator of transcription 3 (Homo sapiens) (P40763 whole entry): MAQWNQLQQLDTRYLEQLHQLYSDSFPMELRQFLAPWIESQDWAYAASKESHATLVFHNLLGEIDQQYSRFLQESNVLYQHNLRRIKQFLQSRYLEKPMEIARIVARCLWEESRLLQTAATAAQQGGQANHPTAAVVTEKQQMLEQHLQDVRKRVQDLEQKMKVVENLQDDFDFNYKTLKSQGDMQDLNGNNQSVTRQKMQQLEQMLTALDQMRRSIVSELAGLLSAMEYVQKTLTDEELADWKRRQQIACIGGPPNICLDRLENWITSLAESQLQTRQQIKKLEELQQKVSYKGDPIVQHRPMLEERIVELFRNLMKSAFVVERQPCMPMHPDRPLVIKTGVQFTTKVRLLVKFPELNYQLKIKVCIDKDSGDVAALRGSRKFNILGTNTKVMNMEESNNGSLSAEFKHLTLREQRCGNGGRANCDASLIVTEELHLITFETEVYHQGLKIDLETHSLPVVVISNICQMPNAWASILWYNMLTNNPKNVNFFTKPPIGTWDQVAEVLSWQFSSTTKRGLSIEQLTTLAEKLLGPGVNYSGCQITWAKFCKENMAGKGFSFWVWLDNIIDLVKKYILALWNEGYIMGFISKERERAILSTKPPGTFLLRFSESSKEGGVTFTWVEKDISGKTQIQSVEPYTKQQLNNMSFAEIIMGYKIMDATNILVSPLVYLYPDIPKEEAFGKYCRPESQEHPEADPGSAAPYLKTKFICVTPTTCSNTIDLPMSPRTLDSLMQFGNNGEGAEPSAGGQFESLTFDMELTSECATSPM
Chain of Tyrosine-protein kinase JAK2 (Homo sapiens) (O60674 whole entry): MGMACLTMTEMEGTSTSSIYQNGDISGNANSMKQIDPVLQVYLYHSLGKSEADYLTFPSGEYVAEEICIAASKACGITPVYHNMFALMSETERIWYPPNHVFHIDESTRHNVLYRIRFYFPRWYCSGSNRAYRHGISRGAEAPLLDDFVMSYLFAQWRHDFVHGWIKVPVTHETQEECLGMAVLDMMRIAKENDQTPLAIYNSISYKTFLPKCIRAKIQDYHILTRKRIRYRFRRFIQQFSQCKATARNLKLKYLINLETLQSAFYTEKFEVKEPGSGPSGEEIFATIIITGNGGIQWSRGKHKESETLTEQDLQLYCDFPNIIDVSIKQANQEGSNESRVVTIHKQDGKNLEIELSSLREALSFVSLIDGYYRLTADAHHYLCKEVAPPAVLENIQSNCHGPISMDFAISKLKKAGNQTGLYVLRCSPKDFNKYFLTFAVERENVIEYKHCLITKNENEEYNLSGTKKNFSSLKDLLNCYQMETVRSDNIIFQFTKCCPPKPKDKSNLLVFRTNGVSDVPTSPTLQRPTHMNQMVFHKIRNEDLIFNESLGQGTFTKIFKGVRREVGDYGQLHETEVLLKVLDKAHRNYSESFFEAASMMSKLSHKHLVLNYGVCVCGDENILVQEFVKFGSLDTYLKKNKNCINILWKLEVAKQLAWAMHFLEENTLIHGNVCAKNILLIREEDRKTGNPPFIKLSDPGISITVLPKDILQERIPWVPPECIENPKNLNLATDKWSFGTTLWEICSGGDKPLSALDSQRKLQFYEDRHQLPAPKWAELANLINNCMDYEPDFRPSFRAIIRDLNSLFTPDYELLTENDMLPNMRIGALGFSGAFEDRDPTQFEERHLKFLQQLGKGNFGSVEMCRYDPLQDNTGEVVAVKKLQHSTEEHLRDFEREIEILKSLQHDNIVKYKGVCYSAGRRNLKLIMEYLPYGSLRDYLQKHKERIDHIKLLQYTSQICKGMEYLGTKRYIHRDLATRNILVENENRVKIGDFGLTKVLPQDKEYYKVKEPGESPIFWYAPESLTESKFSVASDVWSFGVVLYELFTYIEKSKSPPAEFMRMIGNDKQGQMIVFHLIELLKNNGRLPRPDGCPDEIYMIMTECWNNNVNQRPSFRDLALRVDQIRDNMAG
Chain of Proto-oncogene tyrosine-protein kinase Src (Homo sapiens) (P12931 2-536 limits assumed): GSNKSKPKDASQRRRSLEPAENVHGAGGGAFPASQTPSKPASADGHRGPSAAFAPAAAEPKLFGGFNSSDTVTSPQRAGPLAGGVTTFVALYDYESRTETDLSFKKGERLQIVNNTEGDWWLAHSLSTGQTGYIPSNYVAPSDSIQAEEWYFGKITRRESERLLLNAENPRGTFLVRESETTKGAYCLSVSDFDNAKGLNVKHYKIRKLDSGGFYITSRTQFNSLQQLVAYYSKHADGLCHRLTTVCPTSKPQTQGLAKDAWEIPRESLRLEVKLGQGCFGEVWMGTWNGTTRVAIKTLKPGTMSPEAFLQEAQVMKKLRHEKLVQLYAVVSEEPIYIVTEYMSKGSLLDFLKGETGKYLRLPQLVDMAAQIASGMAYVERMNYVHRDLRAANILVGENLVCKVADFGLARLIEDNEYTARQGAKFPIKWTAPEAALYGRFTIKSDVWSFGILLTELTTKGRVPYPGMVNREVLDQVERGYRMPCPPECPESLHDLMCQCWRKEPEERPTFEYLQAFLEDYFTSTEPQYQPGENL

What is called inhibition is the change of the read-out against control, counted positive when it falls. Regarding `C#CCOc1ccc(Cl)cc1CNc1ccccc1Cl`, the inhibition at 10 µM with MDA-MB-468 [1] came out at 15.5%.

Regarding `CC(O)CNCc1c(OCc2ccccc2Cl)ccc2ccccc12` (stereo not drawn), in the assay on MDA-MB-468 [1], the inhibition at 10 µM turned out to be 14.9%.

Consider `NC(=O)COc1ccc(Cl)cc1CNCc1ccc(F)cc1`, for which the inhibition at 10 µM in the assay on MDA-MB-468 [1] amounted to 54.8%. Also, the inhibition in assay [2] amounted to 1.69%.

Regarding `Fc1ccc(COc2ccc(Cl)cc2CNCC2CCCO2)cc1` (stereo not drawn), the inhibition at 10 µM in the assay on MDA-MB-468 [1] came to 27.5%. Also, the inhibition in [2] was determined as 27.8%.

Take `COc1cc(/C=C/C(=O)CC(=O)/C=C/c2ccc(O)c(OC)c2)ccc1O` [CURCUMIN]: the inhibition entry in assay [3] was “Dose-dependent effect”; in [2] it was 41%. Further, the inhibition at 10 µM in the assay on MDA-MB-468 [1] was 3.88%.

For the compound `Clc1ccc(OCc2ccccc2Cl)c(CNCc2ccccc2)c1`, the inhibition at 10 µM with MDA-MB-468 [1] amounted to 10.7%. Also, the inhibition in [2] worked out at 36.6%.

As to `O=C(O)c1ccc(CNCc2ccccc2OCc2ccccc2)cc1`, the inhibition at 10 µM with MDA-MB-468 [1] was -10.8%. Moreover, the inhibition in assay [2] is -8.72%.

In the case of `COCCNCc1ccc(OCc2cc(Cl)cc(Cl)c2)cc1`, the inhibition at 10 µM in the assay on MDA-MB-468 [1] came out at 16.4%. In [2], the inhibition turned out to be 20.2%.

With `COc1ccc(Cl)cc1CNCc1ccc2c(c1)OCO2`, the inhibition at 10 µM in the assay on MDA-MB-468 [1] is -4.03%. In assay [2], the inhibition was -6.39%.

For `Cc1cccc(NCc2cc(Br)ccc2OCc2ccc(Cl)cc2)c1C`, the inhibition at 10 µM in the assay with MDA-MB-468 [1] was -2.03%. In assay [2], the inhibition is 34.5%.

Broadly, the IC50 is the concentration at which inhibition is half-maximal. Take `OCCNCc1cc(Br)ccc1OCc1ccc(Cl)cc1`: in the assay with MDA-MB-468 [4], the IC50 stood at 23 µM. Moreover, the inhibition at 10 µM with MDA-MB-468 [1] came out at 26.6%. Also, in [2], the inhibition was 33.2%.

In the case of `Oc1ccc(NCc2cc(Cl)ccc2OCc2ccc(Cl)cc2)cc1`, the outcome (in assay [5]; in the assay on HepG2 [6]; in assay [7]; in the assay with HepG2 [10]; in the assay with HepG2 [11]) was inactive. For the same compound, in the assay with MDA-MB-468 [4], the IC50 amounted to 18.8 µM. In [8], the inhibition result was “Active”. Also, the inhibition in assay [9] was determined as 14.3%; in [2], 44.9%. Further, in the assay on MDA-MB-468 [1], the inhibition at 10 µM was determined as 46.8%.

In the case of `Fc1ccc(COc2ccc(Cl)cc2CNCC2CCNCC2)cc1`, in the assay with MDA-MB-468 [1], the inhibition at 10 µM amounted to 38.8%.

For the compound `NS(=O)(=O)c1ccc(NCc2cc(Cl)ccc2OCc2ccccc2)cc1`, the outcome (in assay [5]; with HepG2 [6]; in assay [7]; in the assay on HepG2 [10]; in the assay with HepG2 [11]) was inactive. In addition, the IC50 in the assay on MDA-MB-468 [4] stood at 28.3 µM. Further, the inhibition entry in assay [8] is “Active”. In addition, the inhibition at 10 µM in the assay with MDA-MB-468 [1] is 27.7%. Also, in [2], the inhibition stood at 42.1%.

On to `NC(=O)COc1ccc(Cl)cc1CNCCN1CCOCC1`, for which the inhibition at 10 µM in the assay with MDA-MB-468 [1] was -2.61%. The inhibition in [2] is 3.63%.

With `Clc1ccc(COc2ccccc2CNCc2ccccn2)cc1`, in the assay with MDA-MB-468 [1], the inhibition at 10 µM is 18.9%. Besides, the inhibition in [2] is 15.6%.

For the compound `NC(=O)COc1ccc(Cl)cc1CNCCc1ccccc1`, the inhibition at 10 µM in the assay with MDA-MB-468 [1] was -8.1%. The inhibition in assay [2] stood at 14.3%.
